biological target: RAF proto-oncogene serine/threonine-protein kinase (Homo sapiens, UniProt P04049); experiment: Inhibition of Raf1 kinase
Sequence (P04049 whole entry): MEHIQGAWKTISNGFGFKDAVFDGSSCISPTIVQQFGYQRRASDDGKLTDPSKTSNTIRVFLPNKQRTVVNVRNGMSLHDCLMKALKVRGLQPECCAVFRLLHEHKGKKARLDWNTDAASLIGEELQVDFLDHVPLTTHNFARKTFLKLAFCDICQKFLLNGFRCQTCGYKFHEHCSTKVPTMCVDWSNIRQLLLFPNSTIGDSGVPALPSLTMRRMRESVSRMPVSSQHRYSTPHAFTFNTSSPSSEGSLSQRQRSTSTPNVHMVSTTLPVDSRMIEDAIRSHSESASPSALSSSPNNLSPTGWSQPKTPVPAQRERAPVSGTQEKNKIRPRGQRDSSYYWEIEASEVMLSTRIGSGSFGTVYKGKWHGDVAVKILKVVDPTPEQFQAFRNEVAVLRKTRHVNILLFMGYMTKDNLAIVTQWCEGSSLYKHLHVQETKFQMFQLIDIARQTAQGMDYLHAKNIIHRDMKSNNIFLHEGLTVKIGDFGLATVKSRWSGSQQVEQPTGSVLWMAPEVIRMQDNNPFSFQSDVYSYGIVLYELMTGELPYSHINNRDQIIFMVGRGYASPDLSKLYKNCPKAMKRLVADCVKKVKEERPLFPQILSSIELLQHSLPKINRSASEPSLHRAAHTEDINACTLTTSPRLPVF

| IC50 | SMILES |
| --- | --- |
| 1000 nM | Cc1cccc(C)c1/C=C/c1cncc(C#N)c1 |
| 13 nM | NC(=O)c1cc(Oc2ccc(NC(=O)Nc3ccc(Cl)c(C(F)(F)F)c3)cc2)ccn1 |
| 6300 nM | CC(C)(C)c1nnc(NC(=O)Nc2ccc(Oc3ccncc3)cc2)o1 |
| 630 nM | Cc1cc(-c2cccnc2)cc(C)c1/C=C/c1cncc(-c2nn[nH]n2)c1 |
| 251 nM | CNC(=O)c1cncc(/C=C/c2c(Cl)cccc2Cl)c1 [GW445014X] |
| 100 nM | Cc1cc(-c2ccccn2)cc(C)c1/C=C/c1cncc(-c2nn[nH]n2)c1 |
| 3500 nM | CN(c1ccncc1)c1ccc(NC(=O)Nc2cc(C(C)(C)C)on2)cc1 |

Further lines, the molecule ahead of its results:

| SMILES | IC50 |
| --- | --- |
| CC(C)(C)c1nnc(NC(=O)Nc2ccc(Oc3ccncc3)cc2)s1 | 8600 nM |
| CC(C)(C)c1cc(NC(=O)Nc2ccc(Oc3ccc(C(=O)O)cc3)cc2)no1 | 6300 nM |
| Oc1cc(-c2nc(-c3ccccc3)[nH]c2-c2ccncc2)ccc1Cl | 1.4 nM |
| Cc1cc(O)cc(C)c1/C=C/c1cncc(C(N)=O)c1 [GW435821X] | 158 nM |
| COC(=O)c1nc(C(C)(C)C)sc1NC(=O)Nc1ccc(C)cc1 | 25000 nM |
| CNC(=O)Oc1cc(C)c(/C=C/c2cncc(C(N)=O)c2)c(C)c1 | 7 nM |
| CNC(=O)c1cncc(/C=C/c2c(C)cccc2C)c1 [GW445012X] | 250 nM |
| CNC(=O)Oc1cc(C)c(/C=C/c2cncc(C(=O)O)c2)c(C)c1 | 6 nM |
| CNC(=O)Oc1cc(C)c(/C=C/c2cncc(C#N)c2)c(C)c1 | 40 nM |
| CNC(=O)Oc1cc(C)c(/C=C/c2cncc(C(=O)NC)c2)c(C)c1 [GW432441X] | 10 nM |

— ChEMBL document CHEMBL1143922, “Pharmacophore identification of Raf-1 kinase inhibitors” (Bioorg Med Chem Lett, 2008)
